Measurements as given in patent US3997517A, “Cyclic somatostatin disulfide analogues” (American Home Products Corporation, priority 1976, dated 1976).

Columns and labels:
Type in all cases: in vivo
blood serum insulin = assay: Blood serum insulin in Nembutal-treated rats, radioimmunoassay; settings: Nembutal 50 mg/kg i.p., blood sampled 15 min later
Procedure: (§1) The in vivo activity of the cyclic somatostatin disulfide analogues of this invention was established with cyclic somatostatin disulfide as a representative member of the family of compounds by comparing the blood serum growth hormone, glucagon and insulin concentrations found in rats grouped for control, somatostatin and cyclic somatostatin disulfide comparison. The rats, weighing between 200 and 250 grams were treated with Nembutal, 50 milligrams per kilogram intraperitoneally. After five minutes the somatostatin, control and cyclic somatostatin disulfide administrations were made subcutaneously. The rats blood was sampled fifteen minutes later and the growth hormone, glucagon and insulin levels were determined by radioimmunoassay.

blood serum glucagon = assay: Blood serum glucagon in Nembutal-treated rats, radioimmunoassay; settings: Nembutal 50 mg/kg i.p., blood sampled 15 min later
Procedure: as §1

[1] = tested on: blood serum growth hormone; assay: Blood serum growth hormone in Nembutal-treated rats, radioimmunoassay; settings: Nembutal 50 mg/kg i.p., blood sampled 15 min later, control 291±47, *p < 0.01
Procedure: as §1

C[C@H](N)C(=O)NCC(=O)N[C@H]1CSSC[C@@H](C(=O)O)NC(=O)[C@H](CO)NC(=O)[C@H]([C@@H](C)O)NC(=O)[C@H](Cc2ccccc2)NC(=O)[C@H]([C@@H](C)O)NC(=O)[C@H](CCCCN)NC(=O)[C@H](Cc2c[nH]c3ccccc23)NC(=O)[C@H](Cc2ccccc2)NC(=O)[C@H](Cc2ccccc2)NC(=O)[C@H](CC(N)=O)NC(=O)[C@H](CCCCN)NC1=O [Somatostatin, somatostatin] was tested, and the Insulin (blood serum insulin; dose 200 μg/kg subcutaneously, control 272±39, +p < 0.05) was 161 ± 21 µU/mL, the Glucagon (blood serum glucagon; dose 200 μg/kg subcutaneously, control 33±2, *p < 0.01) was 17 ± 2 pg/mL and the GH ([1]; dose 200 μg/kg subcutaneously) was 40 ± 4 ng/mL.
For C[C@@H]1NC(=O)[C@@H]2CSSC[C@H](NC(=O)CNC1=O)C(=O)N[C@@H](CCCCN)C(=O)N[C@@H](CC(N)=O)C(=O)N[C@@H](Cc1ccccc1)C(=O)N[C@@H](Cc1ccccc1)C(=O)N[C@@H](Cc1c[nH]c3ccccc13)C(=O)N[C@@H](CCCCN)C(=O)N[C@@H]([C@@H](C)O)C(=O)N[C@@H](Cc1ccccc1)C(=O)N[C@@H]([C@@H](C)O)C(=O)N[C@@H](CO)C(=O)N2 [Example IV, Cyclo-L-cysteinyl-L-alanyl-glycyl-L-cysteinyl-L-lysyl-L-asparaginyl-L-phenyl-alanyl-L-phenylalanyl-L-tryptophyl-L-lysyl-L-threonyl-L-phenylalanyl-L-threonyl-L-serine (1-4 disulfide)], the Insulin (blood serum insulin; dose 3000 μg/kg subcutaneously, control 272±39) was 308 ± 30 µU/mL, the Glucagon (blood serum glucagon; dose 3000 μg/kg subcutaneously, control 33±2) was 29.7 ± 4 pg/mL and the GH ([1]; dose 3000 μg/kg subcutaneously) was 40 ± 4 ng/mL.
